Measurements: patent US20250388567A1, “SELECTIVE G PROTEIN-COUPLED RECEPTOR KINASE 5 INHIBITORS, COMPOSITIONS, AND METHODS OF USE” (Purdue Research Foundation, priority 2022, published 2025)

Tests used:
human GRK5 = human GRK5 (Homo sapiens (Human), UniProt P34947); experiment: GRK5 radiometric inhibition assay (tubulin phosphorylation, [γ-32P]-ATP); assay type: biochemical; details: 50 nM GRK, 500 nM tubulin, 5 μM ATP
Experimental: (§1) Reactions were quenched at 8 min by addition of 5 μL of 4×SDS gel loading dye to the 10 μL reactions. […] Gels were dried, exposed to a storage phosphor screen overnight, and scanned using a Personal Molecular Imager (Bio-Rad). […] Outliers were eliminated automatically at a 1% Q value. Experiments were performed at least three times.
(§2) Standard control compounds are run during each assay to assess consistency across time, experimenters, and subtle changes in assay conditions that are sometimes required to keep compounds soluble and dispersed (e.g., through addition of DDM or 3% DMSO).

bovine GRK2 = bovine GRK2 (Bos taurus (Bovine), UniProt P21146); experiment: GRK2 radiometric inhibition assay (tubulin phosphorylation, [γ-32P]-ATP); assay type: biochemical; details: 50 nM GRK, 500 nM tubulin, 5 μM ATP
Experimental: as §1, §2

Chain of bovine GRK2 (P21146 whole entry): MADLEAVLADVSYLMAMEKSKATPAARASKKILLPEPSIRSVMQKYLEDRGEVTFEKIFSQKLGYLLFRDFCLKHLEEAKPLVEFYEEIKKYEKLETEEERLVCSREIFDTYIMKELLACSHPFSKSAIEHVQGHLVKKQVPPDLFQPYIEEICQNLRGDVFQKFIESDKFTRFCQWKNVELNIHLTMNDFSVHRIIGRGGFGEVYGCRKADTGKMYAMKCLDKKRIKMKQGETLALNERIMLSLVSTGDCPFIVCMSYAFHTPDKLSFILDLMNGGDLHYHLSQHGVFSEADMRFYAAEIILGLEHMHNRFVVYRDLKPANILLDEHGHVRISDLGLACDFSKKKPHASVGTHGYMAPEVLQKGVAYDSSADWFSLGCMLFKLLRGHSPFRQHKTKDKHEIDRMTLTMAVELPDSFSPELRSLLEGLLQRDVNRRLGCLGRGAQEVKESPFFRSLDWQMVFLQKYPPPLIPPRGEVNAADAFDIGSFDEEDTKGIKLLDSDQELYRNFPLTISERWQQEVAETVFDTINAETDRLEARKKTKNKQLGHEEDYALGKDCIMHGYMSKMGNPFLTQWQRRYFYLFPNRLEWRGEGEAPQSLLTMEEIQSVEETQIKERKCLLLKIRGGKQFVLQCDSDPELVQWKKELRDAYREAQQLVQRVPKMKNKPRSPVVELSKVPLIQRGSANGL
Chain of human GRK5 (P34947 whole entry): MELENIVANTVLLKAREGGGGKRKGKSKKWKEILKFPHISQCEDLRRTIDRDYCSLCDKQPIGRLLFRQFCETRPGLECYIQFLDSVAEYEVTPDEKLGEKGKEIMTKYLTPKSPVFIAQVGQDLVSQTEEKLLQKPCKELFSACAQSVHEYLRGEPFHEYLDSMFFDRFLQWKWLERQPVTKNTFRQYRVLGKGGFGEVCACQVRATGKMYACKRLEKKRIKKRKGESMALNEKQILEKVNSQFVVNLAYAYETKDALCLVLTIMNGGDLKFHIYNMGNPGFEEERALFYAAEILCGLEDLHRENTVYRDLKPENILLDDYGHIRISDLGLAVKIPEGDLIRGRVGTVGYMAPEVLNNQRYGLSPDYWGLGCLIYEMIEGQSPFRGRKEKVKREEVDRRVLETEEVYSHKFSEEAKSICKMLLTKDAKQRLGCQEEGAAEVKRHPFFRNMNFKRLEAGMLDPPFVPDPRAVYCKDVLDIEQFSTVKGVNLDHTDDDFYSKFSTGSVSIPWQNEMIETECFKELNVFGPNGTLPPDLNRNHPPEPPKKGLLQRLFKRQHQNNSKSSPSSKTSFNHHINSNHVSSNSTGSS

With `Cc1[nH]c(/C=C2\C(=O)Nc3ccc(C(=O)N[C@H](C)c4ccccc4)cc32)c(C)c1C(=O)NC(C)c1ccco1` (stereo partly drawn) [Compound 31] the IC50 (human GRK5) was 1 to 100 nM and the IC50 (bovine GRK2) was 1000 to 10000 nM.
For `COCO[C@@H]1Cc2ccccc2[C@H]1NC(=O)c1c(C)[nH]c(/C=C2\C(=O)Nc3ccc(C(=O)N[C@H](C)c4ccccc4)cc32)c1C` [Compound 23], the IC50 (human GRK5) was > 10000 nM and the IC50 (bovine GRK2) was > 10000 nM.
`Cc1[nH]c(/C=C2\C(=O)Nc3ccc(C(=O)N[C@@H]4CCc5ccccc54)cc32)c(C)c1NC(=O)C(O)c1ccco1` (stereo partly drawn) [Compound 10] was tested, and the IC50 (human GRK5) was 101 to 999 nM and the IC50 (bovine GRK2) was > 10000 nM.
In the case of `COc1cccc(C(O)C(=O)Nc2c(C)[nH]c(/C=C3\C(=O)Nc4ccc(C(=O)N[C@H](C)c5ccc(F)cc5)cc43)c2C)c1` (stereo partly drawn) [Compound 28], the IC50 (human GRK5) is reported as 101 to 999 nM and the IC50 (bovine GRK2) is reported as > 10000 nM.
With `Cc1[nH]c(/C=C2\C(=O)Nc3ccc(C(=O)N[C@H](C)c4ccccc4)cc32)c(C)c1C(=O)Nc1nc2ccccc2[nH]1` [Compound 33] the IC50 (human GRK5) was 101 to 999 nM and the IC50 (bovine GRK2) was 1000 to 10000 nM.
`Cc1[nH]c(/C=C2\C(=O)Nc3ccc(C(=O)N[C@H](C)c4ccccc4)cc32)c(C)c1C(=O)N[C@H]1c2ccccc2C[C@@H]1O` [Compound 7] was tested, and the IC50 (human GRK5) was 101 to 999 nM and the IC50 (bovine GRK2) was > 10000 nM.
`Cc1[nH]c(/C=C2\C(=O)Nc3ccc(C(=O)N[C@H](C)c4ccccc4)cc32)c(C)c1C(=O)NCc1ccco1` [Compound 29] gave an IC50 (human GRK5) of 1 to 100 nM and an IC50 (bovine GRK2) of 1000 to 10000 nM.
In the case of `Cc1[nH]c(/C=C2\C(=O)Nc3ccc(C(=O)N[C@H](C)c4ccccc4)cc32)c(C)c1C(=O)N[C@@H]1c2ccccc2C[C@@H]1O` [Compound 5], the IC50 (human GRK5) is reported as 101 to 999 nM and the IC50 (bovine GRK2) is reported as > 10000 nM.
In the case of `Cc1[nH]c(/C=C2\C(=O)Nc3ccc(C(=O)N[C@H](C)c4ccccc4)cc32)c(C)c1C(=O)N[C@H]1c2ccccc2C[C@H]1O` [Compound 8], the IC50 (human GRK5) is reported as 101 to 999 nM and the IC50 (bovine GRK2) is reported as > 10000 nM.
With `Cc1[nH]c(/C=C2\C(=O)Nc3ccc(C(=O)N[C@H](C)c4ccc(F)cc4)cc32)c(C)c1C(=O)NCC1CCCO1` (mixture of isomers) [Compound 35] the IC50 (human GRK5) was 1 to 100 nM and the IC50 (bovine GRK2) was > 10000 nM.
`Cc1[nH]c(CC2C(=O)Nc3ccc(C(=O)N[C@H](C)c4ccc(F)cc4)cc32)c(C)c1NC(=O)[C@H](O)c1ccco1` (stereo partly drawn) [Compound 13] was tested, and the IC50 (human GRK5) was 101 to 999 nM and the IC50 (bovine GRK2) was > 10000 nM.
In the case of `Cc1[nH]c(/C=C2\C(=O)Nc3ccc(C(=O)N[C@H](C)c4ccccc4)cc32)c(C)c1C(=O)NC1CCS(=O)(=O)CC1` [Compound 42], the IC50 (human GRK5) is reported as 101 to 999 nM and the IC50 (bovine GRK2) is reported as > 10000 nM.
In the case of `Cc1[nH]c(/C=C2\C(=O)Nc3ccc(C(=O)N[C@H](C)c4ccccc4)cc32)c(C)c1C(=O)N[C@H]1Cc2ccccc2[C@H]1O` [Compound 34], the IC50 (human GRK5) is reported as 1 to 100 nM and the IC50 (bovine GRK2) is reported as 1000 to 10000 nM.
For `Cc1[nH]c(/C=C2\C(=O)Nc3ccc(C(=O)N[C@H](C)c4ccccc4)cc32)c(C)c1C(=O)NC1CCOCC1` [Compound 43], the IC50 (human GRK5) was 1000 to 10000 nM and the IC50 (bovine GRK2) was > 10000 nM.
`Cc1[nH]c(/C=C2\C(=O)Nc3ccc(C(=O)N[C@H](C)c4ccccc4)cc32)c(C)c1C(=O)NC[C@@H]1CCCO1` [Compound 37] gave an IC50 (human GRK5) of 1 to 100 nM and an IC50 (bovine GRK2) of 1000 to 10000 nM.
For `Cc1[nH]c(/C=C2\C(=O)Nc3ccc(C(=O)N[C@H](C)c4ccccc4)cc32)c(C)c1C(=O)NCC1CC(=O)c2ccccc2O1` (stereo partly drawn) [Compound 41], the IC50 (human GRK5) was 1 to 100 nM and the IC50 (bovine GRK2) was > 10000 nM.
For `Cc1[nH]c(/C=C2\C(=O)Nc3ccc(C(=O)N[C@H](C)c4ccccc4)cc32)c(C)c1C(=O)N[C@H]1c2ccccc2CC[C@H]1O` [Compound 25], the IC50 (human GRK5) was 101 to 999 nM and the IC50 (bovine GRK2) was > 10000 nM.
`Cc1[nH]c(/C=C2\C(=O)Nc3ccc(C(=O)N[C@H](C)c4ccc(F)cc4)cc32)c(C)c1NC(=O)C(O)c1ccccc1` (stereo partly drawn) [Compound 1] was tested, and the IC50 (bovine GRK2) was > 10000 nM.
Compound `Cc1[nH]c(/C=C2\C(=O)Nc3ccc(C(=O)N[C@H](C)c4ccccc4)cc32)c(C)c1C(=O)NCC1CCOC1` (mixture of isomers) [Compound 40] has an IC50 (human GRK5) of 1 to 100 nM and an IC50 (bovine GRK2) of 1000 to 10000 nM.
For `Cc1[nH]c(/C=C2\C(=O)Nc3ccc(C(=O)N[C@H](C)c4ccccc4)cc32)c(C)c1C(=O)NCC(O)C1CCOC1` (stereo partly drawn) [Compound 44], the IC50 (human GRK5) was 1 to 100 nM and the IC50 (bovine GRK2) was > 10000 nM.
With `Cc1[nH]c(/C=C2\C(=O)Nc3ccc(C(=O)N[C@H](C)c4ccccc4)cc32)c(C)c1C(=O)N[C@@H]1CCc2ccccc21` [Compound 16] the IC50 (human GRK5) was 1000 to 10000 nM and the IC50 (bovine GRK2) was > 10000 nM.
For `Cc1[nH]c(/C=C2\C(=O)Nc3ccc(C(=O)N[C@H](C)c4ccccc4)cc32)c(C)c1C(=O)N[C@@H]1c2ccccc2C[C@H]1O` [Compound 6], the IC50 (human GRK5) was 101 to 999 nM and the IC50 (bovine GRK2) was > 10000 nM.
Compound `Cc1[nH]c(/C=C2\C(=O)Nc3ccc(C(=O)N[C@H](C)c4ccccc4)cc32)c(C)c1C(=O)NCC1CCCO1` (stereo partly drawn) [Compound 30] has an IC50 (human GRK5) of 1 to 100 nM and an IC50 (bovine GRK2) of 1000 to 10000 nM.
In the case of `Cc1[nH]c(/C=C2\C(=O)Nc3ccc(C(=O)N[C@H]4CCc5ccccc54)cc32)c(C)c1NC(=O)C(O)c1ccco1` (stereo partly drawn) [Compound 12], the IC50 (human GRK5) is reported as 1000 to 10000 nM and the IC50 (bovine GRK2) is reported as > 10000 nM.
For `Cc1[nH]c(/C=C2\C(=O)Nc3ccc(C(=O)N[C@H](C)c4ccccc4)cc32)c(C)c1C(=O)NCC(O)c1ccco1` (stereo partly drawn) [Compound 27], the IC50 (human GRK5) was 1 to 100 nM and the IC50 (bovine GRK2) was 1000 to 10000 nM.
With `Cc1[nH]c(/C=C2\C(=O)Nc3ccc(C(=O)N[C@H](C)c4ccccc4)cc32)c(C)c1C(=O)NCC1CCCCO1` (stereo partly drawn) [Compound 38] the IC50 (human GRK5) was 1 to 100 nM and the IC50 (bovine GRK2) was > 10000 nM.
Work on `Cc1[nH]c(/C=C2\C(=O)Nc3ccc(C(=O)N[C@H](C)c4ccc(F)cc4)cc32)c(C)c1NC(=O)c1ccoc1` [Compound 21] yielded an IC50 (human GRK5) of 1 to 100 nM.
`COc1cccc2[nH]c(C(O)C(=O)Nc3c(C)[nH]c(/C=C4\C(=O)Nc5ccc(C(=O)N[C@H](C)c6ccc(F)cc6)cc54)c3C)cc12` (stereo partly drawn) [Compound 4] was tested, and the IC50 (human GRK5) was 101 to 999 nM and the IC50 (bovine GRK2) was > 10000 nM.
`Cc1[nH]c(/C=C2\C(=O)Nc3ccc(C(=O)N[C@H](C)c4ccccc4)cc32)c(C)c1C(O)C#N` (stereo partly drawn) [Compound 18] was tested, and the IC50 (human GRK5) was 101 to 999 nM and the IC50 (bovine GRK2) was > 10000 nM.
For `Cc1[nH]c(/C=C2\C(=O)Nc3ccc(C(=O)N[C@H](C)c4ccccc4)cc32)c(C)c1C(=O)N[C@H]1C(=O)Cc2ccccc21` [Compound 20], the IC50 (human GRK5) was 101 to 999 nM and the IC50 (bovine GRK2) was > 10000 nM.
For `Cc1[nH]c(/C=C2\C(=O)Nc3ccc(C(=O)N[C@H](C)c4ccccc4)cc32)c(C)c1C(=O)NCC(O)c1ccoc1` (stereo partly drawn) [Compound 32], the IC50 (human GRK5) was 1 to 100 nM and the IC50 (bovine GRK2) was 1000 to 10000 nM.
In the case of `Cc1[nH]c(/C=C2\C(=O)Nc3ccc(C(=O)N[C@H](C)c4ccc(F)cc4)cc32)c(C)c1C(=O)N[C@@H]1c2ccccc2C[C@H]1O` [Compound 19], the IC50 (human GRK5) is reported as 101 to 999 nM and the IC50 (bovine GRK2) is reported as > 10000 nM.
`Cc1[nH]c(/C=C2\C(=O)Nc3ccc(C(=O)N[C@H](C)c4ccccc4)cc32)c(C)c1C(=O)NC1c2ccccc2OCC1O` (stereo partly drawn) [Compound 26] was tested, and the IC50 (human GRK5) was 101 to 999 nM and the IC50 (bovine GRK2) was > 10000 nM.
For `Cc1[nH]c(/C=C2\C(=O)Nc3ccc(C(=O)N[C@H](C)c4ccccc4)cc32)c(C)c1C(=O)NC1CCOC1` (mixture of isomers) [Compound 39], the IC50 (human GRK5) was 1 to 100 nM and the IC50 (bovine GRK2) was 1000 to 10000 nM.
`Cc1[nH]c(/C=C2\C(=O)Nc3ccc(C(=O)N[C@H]4CCc5ccccc54)cc32)c(C)c1NC(=O)C(=O)c1ccco1` [Compound 11] was tested, and the IC50 (human GRK5) was 1000 to 10000 nM and the IC50 (bovine GRK2) was > 10000 nM.
With `Cc1[nH]c(/C=C2\C(=O)Nc3ccc(C(=O)N[C@H](C)c4ccccc4)cc32)c(C)c1C(=O)N[C@H]1CCc2ccccc21` [Compound 17] the IC50 (human GRK5) was > 10000 nM and the IC50 (bovine GRK2) was > 10000 nM.
With `Cc1[nH]c(/C=C2\C(=O)Nc3ccc(C(=O)N[C@H](C)c4ccccc4)cc32)c(C)c1C(=O)NC[C@H]1CCCO1` [Compound 36] the IC50 (human GRK5) was 1 to 100 nM and the IC50 (bovine GRK2) was > 10000 nM.
In the case of `Cc1[nH]c(/C=C2\C(=O)Nc3ccc(C(=O)N[C@@H]4CCc5ccccc54)cc32)c(C)c1NC(=O)C(=O)c1ccco1` [Compound 9], the IC50 (human GRK5) is reported as > 10000 nM and the IC50 (bovine GRK2) is reported as > 10000 nM.
`Cc1[nH]c(/C=C2\C(=O)Nc3ccc(C(=O)N[C@H](C)c4ccc(F)cc4)cc32)c(C)c1NC(=O)C(O)c1ccoc1` (stereo partly drawn) [Compound 22] gave an IC50 (human GRK5) of 1 to 100 nM and an IC50 (bovine GRK2) of 1000 to 10000 nM.
For `Cc1[nH]c(/C=C2\C(=O)Nc3ccc(C(=O)N[C@H](C)c4ccccc4)cc32)c(C)c1C(=O)N[C@@H]1c2ccccc2CC[C@@H]1O` [Compound 24], the IC50 (human GRK5) was 101 to 999 nM and the IC50 (bovine GRK2) was > 10000 nM.
